Patent publication US5808144A, “Benzene derivatives” (Teijin Limited, priority 1995, dated 1998)

Test system: human IgE antibody
Test: Human IgE antibody production-inhibiting activity in vitro (lymphocytes + IL-4 + anti-CD40 Ab + IL-10, sandwich ELISA)
Format: cell-based
Conditions: Lymphocyte, 100 nM (0.1 μM), vs. no compound
Procedure: (§1) Measurement of human IgE antibody production-inhibiting activity in vitro
(§2) In accordance with the following method established with reference to The Journal of Immunology (J. Immunol.), Vol. 146, 1836 to 1842 (1991) and the Journal of Immunology (J. Immunol.), Vol. 147, 8 to 13 (1991), the concentrations of IgE and […], when the compounds of the present invention shown in Table 12 were employed, were measured.
(§3) Peripheral venous blood gathered from a healthy person was subjected to a density-gradient centrifugation to isolate lymphocytes therefrom. The isolated lymphocytes were washed and suspended in a culture medium liquid (RPMI-1640 (made by Gibco Co.)+10% heat-inactivated FCS (made of Whittaker Co.)+100 μg/ml streptomycin+100 U/ml penicillin G+2 mM L-glutamine). The lymphocytes in the suspension were cultured for one week in the presence or non-presence of the above-mentioned compounds and in the presence of an interleukin 4 (IL-4, made by GENZYME CO.) (0.1 mg/ml), an anti-CD 40 antibodies (anti CD 40 Ab, made by BIOSOURCE CO., clone B-B20) (0.2 mg/ml), and an interleukin 10 (IL-10, made by GENZYME CO.) (0.2 mg/ml). To this culture system, the same culture medium liquid as mentioned above was supplemented, and then the culture was further carried out for one week. Thereafter, the concentrations of IgE antibodies and IgG antibodies in the supernatant of the culture mixture were measured by a sandwich ELISA method. In the measurement by the ELISA method, the concentration of the IgE antibodies was determined by using a primary antibody consisting of a rabbit anti-human IgE (ε) antibody (made by IGN Co.) and a secondary antibody consisting of biotin-anti-human IgE monoclonal antibody (G7-26, made by Phar Mingen Co.), and the concentration of IgG antibodies was determined by using a primary antibody consisting of anti-human IgG monoclonal antibody (G18-145, made by Phar Mingen Co.) and a secondary antibody consisting of biotin-donkey anti-human IgG antibody (H+L), made by Jackson Co.). Also, in the measurement of IgE and IgG antibody concentrations, as an enzyme, an Avidin-Biotin-HRP (Avidin-Biotin-Horse Radish Peroxidase; ABC kit, made by Vector Lab.) was used and as a substrate, TMB (3,3', 5,5'-tetramethylbenzidine) Microwell Peroxidase Substrate System (made by Kirkegaad & Perry Laboratories Inc.) was used.
(§4) On the basis of each antibody concentration when the compound of the present invention was not present, each antibody production-inhibition (%) in a concentration of the compound to be tested of 0.1 μM was calculated. Further, with respect to some of the compounds tested, the antibody production-inhibitions (%) of the tested compounds were measured in various concentrations thereof, and IC 50 values thereof were calculated. (Refer to Uejima et al., American Academy of Allergy & Immunology, Proceeding of 1995 Annual Meeting, Program No. 818).

SMILES | inhibition at 0.1 µM [%]
O=C(Cc1ccc(Oc2ccc(OCc3ccccc3)cc2)cc1)Nc1ccccc1C(=O)O [Compound No. 4, 2-(4-(4-benzyloxyphenoxy)phenylacetamido)benzoic acid] | 100
CCC(CC)Oc1ccc(Oc2ccc(CC(=O)Nc3ccccc3C(=O)O)cc2)cc1 [compound 20, 2-(4-(4-(3-pentyloxy)phenoxy)phenylacetamido)benzoic acid] | 100
O=C(Nc1ccccc1C(=O)O)c1ccc(Oc2ccc(OC3CCCCCCC3)cc2)cc1 [compound 22, 2-(4-(4-cyclooctyloxyphenoxy)benzamido)benzoic acid] | 51
O=C(Nc1ccccc1C(=O)O)c1ccc(Oc2ccc(O)cc2)cc1 [compound 30, 2-(4-(4-hydroxyphenoxy)benzamido)benzoic acid] | 25.7
O=C(Cc1ccc(Oc2ccc(OC3CCCCCCCCCCC3)cc2)cc1)Nc1ccccc1C(=O)O [compound 16, 2-(4-(4-cyclododecanyloxyphenoxy)phenylacetamido)benzoic acid] | 100
O=C(Cc1ccc(Oc2ccc(OC3CCCC3)cc2)cc1)Nc1ccccc1C(=O)O [compound 12, 2-(4-(4-cyclopentyloxyphenoxy)phenylacetamido)benzoic acid] | 100
O=C(Cc1ccc(Oc2ccc(OC3CCCCCCC3)cc2)cc1)Nc1ccccc1C(=O)O [Compound No. 14, 2-(4-(4-cyclooctyloxyphenoxy)phenylacetamido)benzoic acid] | 100
CC(C)Oc1ccc(Oc2ccc(CC(=O)Nc3ccccc3C(=O)O)cc2)cc1 [compound 18, 2-(4-(4-isopropyloxyphenoxy)phenylacetamido)benzoic acid] | 19.5
O=C(Cc1ccc(Oc2ccc(OC3CCCCC3)cc2)cc1)Nc1ccccc1C(=O)O [Compound No. 8, 2-(4-(4-cyclohexyloxyphenoxy)phenylacetamido)benzoic acid] | 95.5

Same assay, conditions: Lymphocyte, IgE antibody production

SMILES | IC50 [nM]
O=C(Cc1ccc(Oc2ccc(OCc3ccccc3)cc2)cc1)Nc1ccccc1C(=O)O [Compound No. 4, 2-(4-(4-benzyloxyphenoxy)phenylacetamido)benzoic acid] | 28
O=C(Cc1ccc(Oc2ccc(OC3CCCCC3)cc2)cc1)Nc1ccccc1C(=O)O [Compound No. 8, 2-(4-(4-cyclohexyloxyphenoxy)phenylacetamido)benzoic acid] | 17

Continued, values first:

IC50 [nM] | SMILES
35 | CCC(CC)Oc1ccc(Oc2ccc(CC(=O)Nc3ccccc3C(=O)O)cc2)cc1 [compound 20, 2-(4-(4-(3-pentyloxy)phenoxy)phenylacetamido)benzoic acid]
22 | O=C(Cc1ccc(Oc2ccc(OC3CCCCCCCCCCC3)cc2)cc1)Nc1ccccc1C(=O)O [compound 16, 2-(4-(4-cyclododecanyloxyphenoxy)phenylacetamido)benzoic acid]
44 | O=C(Cc1ccc(Oc2ccc(OC3CCCC3)cc2)cc1)Nc1ccccc1C(=O)O [compound 12, 2-(4-(4-cyclopentyloxyphenoxy)phenylacetamido)benzoic acid]
6 | O=C(Cc1ccc(Oc2ccc(OC3CCCCCCC3)cc2)cc1)Nc1ccccc1C(=O)O [Compound No. 14, 2-(4-(4-cyclooctyloxyphenoxy)phenylacetamido)benzoic acid]

Test system: anti-TNP IgG
Test: TNP-sensitive mice: serum anti-TNP IgG (ELISA)
Format: in vivo, mouse
Conditions: 10 mg/kg p.o. once a day for 10 days; serum day 11; vehicle 4390 ± 2630
Procedure: (§5) Measurement of IgE antibody production-inhibiting performance on TNP-sensitive mice
(§6) TNP-KLH (2 μg/head) and Alum (1 mg/head) were dosed into the abdominal cavities of 8-week-old male mice to sensitize the mice.
(§7) Compound No. 14 was suspended in a concentration of 1.0 mg/ml, 3.0 mg/ml or […] in an aqueous 5% gum arabi solution, and each suspension was perorally dosed to three groups of mice for medication, to which each medicine was dosed at a dosage of 10 ml/kg, (namely, 10 mg/kg, 30 mg/kg or 100 mg/kg), once a day continuously for 10 days from the sensitized day. For a vehicle mouse group, the above-mentioned aqueous gum arali solution was dosed in the same amount as mentioned above in the same manner as mentioned above.
(§8) On the day after the final dosing day (the eleventh day), blood was extracted from the heart of the mouse, and a TNP specific antibody value of a blood serum obtained from the extracted blood was measured in accordance with ELISA method.

SMILES | anti-TNP IgG [ng/mL]
O=C(Cc1ccc(Oc2ccc(OC3CCCCCCC3)cc2)cc1)Nc1ccccc1C(=O)O [Compound No. 14, 2-(4-(4-cyclooctyloxyphenoxy)phenylacetamido)benzoic acid] | 2980 ± 2310

Same assay, conditions: 30 mg/kg p.o. once a day for 10 days; serum day 11; vehicle 4390 ± 2630

SMILES | anti-TNP IgG [ng/mL]
O=C(Cc1ccc(Oc2ccc(OC3CCCCCCC3)cc2)cc1)Nc1ccccc1C(=O)O [Compound No. 14, 2-(4-(4-cyclooctyloxyphenoxy)phenylacetamido)benzoic acid] | 2500 ± 1700

Same assay, conditions: 100 mg/kg p.o. once a day for 10 days; serum day 11; vehicle 4390 ± 2630; ** p < 0.01 vs. vehicle

SMILES | anti-TNP IgG [ng/mL]
O=C(Cc1ccc(Oc2ccc(OC3CCCCCCC3)cc2)cc1)Nc1ccccc1C(=O)O [Compound No. 14, 2-(4-(4-cyclooctyloxyphenoxy)phenylacetamido)benzoic acid] | 16 ± 18

Test system: anti-TNP IgE
Test: IgE antibody production-inhibiting performance on TNP-sensitive mice: serum anti-TNP IgE (ELISA)
Format: in vivo, mouse
Conditions: 10 mg/kg p.o. once a day for 10 days; serum day 11; vehicle 433 ± 118
Procedure: as §5, §6, §7, §8

SMILES | anti-TNP IgE [ng/mL]
O=C(Cc1ccc(Oc2ccc(OC3CCCCCCC3)cc2)cc1)Nc1ccccc1C(=O)O [Compound No. 14, 2-(4-(4-cyclooctyloxyphenoxy)phenylacetamido)benzoic acid] | 127 ± 72

Same assay, conditions: 30 mg/kg p.o. once a day for 10 days; serum day 11; vehicle 433 ± 118; ** p < 0.01 vs. vehicle

SMILES | anti-TNP IgE [ng/mL]
O=C(Cc1ccc(Oc2ccc(OC3CCCCCCC3)cc2)cc1)Nc1ccccc1C(=O)O [Compound No. 14, 2-(4-(4-cyclooctyloxyphenoxy)phenylacetamido)benzoic acid] | 52 ± 30

Same assay, conditions: 100 mg/kg p.o. once a day for 10 days; serum day 11; vehicle 433 ± 118; ** p < 0.01 vs. vehicle

SMILES | anti-TNP IgE [ng/mL]
O=C(Cc1ccc(Oc2ccc(OC3CCCCCCC3)cc2)cc1)Nc1ccccc1C(=O)O [Compound No. 14, 2-(4-(4-cyclooctyloxyphenoxy)phenylacetamido)benzoic acid] | 0.2 ± 0.4

Test system: anti-TNP IgM
Test: TNP-sensitive mice: serum anti-TNP IgM (ELISA)
Format: in vivo, mouse
Conditions: 10 mg/kg p.o. once a day for 10 days; serum day 11; vehicle 110 ± 9
Procedure: as §5, §6, §7, §8

SMILES | anti-TNP IgM [µg/mL]
O=C(Cc1ccc(Oc2ccc(OC3CCCCCCC3)cc2)cc1)Nc1ccccc1C(=O)O [Compound No. 14, 2-(4-(4-cyclooctyloxyphenoxy)phenylacetamido)benzoic acid] | 79 ± 40

Same assay, conditions: 30 mg/kg p.o. once a day for 10 days; serum day 11; vehicle 110 ± 9

SMILES | anti-TNP IgM (μg/ml)
O=C(Cc1ccc(Oc2ccc(OC3CCCCCCC3)cc2)cc1)Nc1ccccc1C(=O)O [Compound No. 14, 2-(4-(4-cyclooctyloxyphenoxy)phenylacetamido)benzoic acid] | 73 ± +26 μg/ml

Same assay, conditions: 100 mg/kg p.o. once a day for 10 days; serum day 11; vehicle 110 ± 9; ** p < 0.01 vs. vehicle

SMILES | anti-TNP IgM [µg/mL]
O=C(Cc1ccc(Oc2ccc(OC3CCCCCCC3)cc2)cc1)Nc1ccccc1C(=O)O [Compound No. 14, 2-(4-(4-cyclooctyloxyphenoxy)phenylacetamido)benzoic acid] | 20 ± 5.0

Test system: human IgG antibody
Test: Human IgG antibody production-inhibiting activity in vitro (lymphocytes + IL-4 + anti-CD40 Ab + IL-10, sandwich ELISA)
Format: cell-based
Conditions: Lymphocyte, 100 nM (0.1 μM), vs. no compound
Procedure: as §1, §2, §3, §4

SMILES | inhibition at 0.1 µM [%]
O=C(Cc1ccc(Oc2ccc(OCc3ccccc3)cc2)cc1)Nc1ccccc1C(=O)O [Compound No. 4, 2-(4-(4-benzyloxyphenoxy)phenylacetamido)benzoic acid] | 100
CCC(CC)Oc1ccc(Oc2ccc(CC(=O)Nc3ccccc3C(=O)O)cc2)cc1 [compound 20, 2-(4-(4-(3-pentyloxy)phenoxy)phenylacetamido)benzoic acid] | 52.6
O=C(Nc1ccccc1C(=O)O)c1ccc(Oc2ccc(OC3CCCCCCC3)cc2)cc1 [compound 22, 2-(4-(4-cyclooctyloxyphenoxy)benzamido)benzoic acid] | -33.2
O=C(Nc1ccccc1C(=O)O)c1ccc(Oc2ccc(O)cc2)cc1 [compound 30, 2-(4-(4-hydroxyphenoxy)benzamido)benzoic acid] | -31.7
O=C(Cc1ccc(Oc2ccc(OC3CCCCCCCCCCC3)cc2)cc1)Nc1ccccc1C(=O)O [compound 16, 2-(4-(4-cyclododecanyloxyphenoxy)phenylacetamido)benzoic acid] | 95.8
O=C(Cc1ccc(Oc2ccc(OC3CCCC3)cc2)cc1)Nc1ccccc1C(=O)O [compound 12, 2-(4-(4-cyclopentyloxyphenoxy)phenylacetamido)benzoic acid] | 95.8
O=C(Cc1ccc(Oc2ccc(OC3CCCCCCC3)cc2)cc1)Nc1ccccc1C(=O)O [Compound No. 14, 2-(4-(4-cyclooctyloxyphenoxy)phenylacetamido)benzoic acid] | 93.8
CC(C)Oc1ccc(Oc2ccc(CC(=O)Nc3ccccc3C(=O)O)cc2)cc1 [compound 18, 2-(4-(4-isopropyloxyphenoxy)phenylacetamido)benzoic acid] | -1.7
O=C(Cc1ccc(Oc2ccc(OC3CCCCC3)cc2)cc1)Nc1ccccc1C(=O)O [Compound No. 8, 2-(4-(4-cyclohexyloxyphenoxy)phenylacetamido)benzoic acid] | 40.6

Same assay, conditions: Lymphocyte, IgG antibody production

SMILES | IC50 [nM]
O=C(Cc1ccc(Oc2ccc(OCc3ccccc3)cc2)cc1)Nc1ccccc1C(=O)O [Compound No. 4, 2-(4-(4-benzyloxyphenoxy)phenylacetamido)benzoic acid] | 200
O=C(Cc1ccc(Oc2ccc(OC3CCCCC3)cc2)cc1)Nc1ccccc1C(=O)O [Compound No. 8, 2-(4-(4-cyclohexyloxyphenoxy)phenylacetamido)benzoic acid] | 50

The next lines start with the values.

IC50 [nM] | SMILES
> 100 | CCC(CC)Oc1ccc(Oc2ccc(CC(=O)Nc3ccccc3C(=O)O)cc2)cc1 [compound 20, 2-(4-(4-(3-pentyloxy)phenoxy)phenylacetamido)benzoic acid]
46 | O=C(Cc1ccc(Oc2ccc(OC3CCCCCCCCCCC3)cc2)cc1)Nc1ccccc1C(=O)O [compound 16, 2-(4-(4-cyclododecanyloxyphenoxy)phenylacetamido)benzoic acid]
> 100 | O=C(Cc1ccc(Oc2ccc(OC3CCCC3)cc2)cc1)Nc1ccccc1C(=O)O [compound 12, 2-(4-(4-cyclopentyloxyphenoxy)phenylacetamido)benzoic acid]
12 | O=C(Cc1ccc(Oc2ccc(OC3CCCCCCC3)cc2)cc1)Nc1ccccc1C(=O)O [Compound No. 14, 2-(4-(4-cyclooctyloxyphenoxy)phenylacetamido)benzoic acid]
